# In ChEMBL document CHEMBL1125853, “An acyliminium ion route to and Anti phe-gly dipeptide mimetics” (Bioorg Med Chem Lett, 1991):
# Target: Angiotensin-converting enzyme (Homo sapiens, UniProt P12821)
# Assay: Inhibitory constant angiotensin converting enzyme
# Sequence of Angiotensin-converting enzyme (P12821 whole entry): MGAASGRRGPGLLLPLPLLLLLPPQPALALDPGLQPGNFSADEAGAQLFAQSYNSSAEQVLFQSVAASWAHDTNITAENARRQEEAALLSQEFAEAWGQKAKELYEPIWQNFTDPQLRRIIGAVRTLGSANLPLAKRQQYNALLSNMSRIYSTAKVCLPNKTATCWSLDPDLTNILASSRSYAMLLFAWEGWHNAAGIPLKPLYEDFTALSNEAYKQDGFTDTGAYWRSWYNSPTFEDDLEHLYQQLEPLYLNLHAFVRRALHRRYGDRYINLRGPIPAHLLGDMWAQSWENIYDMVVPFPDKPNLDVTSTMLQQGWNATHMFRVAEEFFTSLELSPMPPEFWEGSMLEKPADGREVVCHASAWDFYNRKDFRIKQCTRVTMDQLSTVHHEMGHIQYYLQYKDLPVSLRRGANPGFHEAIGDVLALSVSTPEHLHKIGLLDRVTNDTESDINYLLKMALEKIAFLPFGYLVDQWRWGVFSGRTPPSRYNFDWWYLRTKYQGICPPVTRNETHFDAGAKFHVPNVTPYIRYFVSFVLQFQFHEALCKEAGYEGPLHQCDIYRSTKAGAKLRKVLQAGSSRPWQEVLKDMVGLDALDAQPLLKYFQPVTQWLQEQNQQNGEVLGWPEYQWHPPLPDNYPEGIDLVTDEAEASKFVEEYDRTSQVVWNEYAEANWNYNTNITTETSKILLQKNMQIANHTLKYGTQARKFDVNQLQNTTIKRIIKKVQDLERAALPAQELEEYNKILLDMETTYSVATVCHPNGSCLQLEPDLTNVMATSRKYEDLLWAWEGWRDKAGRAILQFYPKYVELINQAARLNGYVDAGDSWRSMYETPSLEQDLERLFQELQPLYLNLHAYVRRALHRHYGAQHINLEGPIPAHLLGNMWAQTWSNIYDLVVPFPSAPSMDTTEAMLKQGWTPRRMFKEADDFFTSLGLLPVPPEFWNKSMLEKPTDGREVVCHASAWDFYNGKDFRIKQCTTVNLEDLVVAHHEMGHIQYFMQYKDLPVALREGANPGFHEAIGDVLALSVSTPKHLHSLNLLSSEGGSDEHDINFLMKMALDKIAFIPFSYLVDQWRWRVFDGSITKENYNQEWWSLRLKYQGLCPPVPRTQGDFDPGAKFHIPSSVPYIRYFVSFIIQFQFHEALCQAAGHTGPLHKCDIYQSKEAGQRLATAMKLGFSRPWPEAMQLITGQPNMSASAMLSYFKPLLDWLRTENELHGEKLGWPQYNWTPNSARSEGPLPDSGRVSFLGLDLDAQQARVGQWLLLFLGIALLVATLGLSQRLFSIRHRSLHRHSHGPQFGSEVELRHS
structure (smiles),measurement,value
O=C(O)CN1Cc2ccccc2CC(N[C@H](CCc2ccccc2)C(=O)O)C1=O (stereo partly specified),Ki,10 nM
